Measured values as given in ChEMBL document CHEMBL3751840, “Peptide-based inhibitors of protein-protein interactions” (Bioorg Med Chem Lett, 2016).
Starred links: 1 amine or outer side, 2 acyl side, 3 side chain; linkers in the order of their positions; H or OH if unused. Positions of bridges follow the written chain, without caps; N, C: chain ends. Non-standard residues stand in square brackets, D forms with d. Residues, ends and D or L forms follow the SMILES beside them. X1 = O=C([C@H]1CNC[C@@H]1N[*:1])[*:2]; X2 = O=C([C@H]1CCC[C@@H]1N[*:1])[*:2]

Key:
[1] = target: Tumour suppressor p53/oncoprotein Mdm2 (Homo sapiens, UniProt P04637+Q00987); assay: Inhibition of p53-HDM2 (unknown origin) interaction; assay type: protein assay
Estrogen receptor = target: T1, Estrogen receptor (Homo sapiens, UniProt P03372); assay: Binding affinity to ERalpha (unknown origin)
T1 sequence (P03372 whole entry): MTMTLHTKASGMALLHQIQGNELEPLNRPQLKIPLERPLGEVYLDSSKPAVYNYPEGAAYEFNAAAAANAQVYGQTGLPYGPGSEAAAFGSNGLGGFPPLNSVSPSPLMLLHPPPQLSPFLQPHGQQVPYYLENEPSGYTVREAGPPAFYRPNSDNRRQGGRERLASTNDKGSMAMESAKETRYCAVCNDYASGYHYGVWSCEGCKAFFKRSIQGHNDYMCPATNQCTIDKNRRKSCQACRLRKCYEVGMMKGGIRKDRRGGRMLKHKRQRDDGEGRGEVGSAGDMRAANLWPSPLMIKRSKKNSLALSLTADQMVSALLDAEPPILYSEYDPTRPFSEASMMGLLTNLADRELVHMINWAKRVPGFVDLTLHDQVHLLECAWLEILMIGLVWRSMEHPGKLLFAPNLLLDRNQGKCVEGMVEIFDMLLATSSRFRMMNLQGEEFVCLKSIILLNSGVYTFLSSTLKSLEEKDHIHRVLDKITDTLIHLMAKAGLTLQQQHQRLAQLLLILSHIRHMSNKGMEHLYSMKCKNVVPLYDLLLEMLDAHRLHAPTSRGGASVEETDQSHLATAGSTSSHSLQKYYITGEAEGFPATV

Bcl-2-like protein 1 = Bcl-2-like protein 1 (Homo sapiens, UniProt Q07817); assay: Inhibition of BCL-xL-BH3 domain (unknown origin) interaction
[2] = target: E3 ubiquitin-protein ligase Mdm2 (Homo sapiens, UniProt Q00987); assay: Binding affinity to MDM2 (unknown origin)
[3] = target: Menin/Histone-lysine N-methyltransferase MLL (Homo sapiens, UniProt O00255+Q03164); assay: Inhibition of menin-MLL (unknown origin) interaction; assay type: protein assay

Sequence of Tumour suppressor p53/oncoprotein Mdm2 (P04637 whole entry): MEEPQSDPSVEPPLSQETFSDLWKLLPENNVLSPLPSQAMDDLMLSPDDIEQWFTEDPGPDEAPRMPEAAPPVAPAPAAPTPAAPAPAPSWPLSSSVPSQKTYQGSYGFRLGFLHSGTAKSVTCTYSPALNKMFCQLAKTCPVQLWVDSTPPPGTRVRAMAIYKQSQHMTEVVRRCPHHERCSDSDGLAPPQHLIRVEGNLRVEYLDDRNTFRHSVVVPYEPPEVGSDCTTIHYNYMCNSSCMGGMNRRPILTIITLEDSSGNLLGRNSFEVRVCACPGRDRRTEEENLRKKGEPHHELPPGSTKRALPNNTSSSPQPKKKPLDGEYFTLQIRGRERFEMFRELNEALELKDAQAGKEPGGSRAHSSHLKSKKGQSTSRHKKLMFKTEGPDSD
Sequence of Tumour suppressor p53/oncoprotein Mdm2 (Q00987 whole entry): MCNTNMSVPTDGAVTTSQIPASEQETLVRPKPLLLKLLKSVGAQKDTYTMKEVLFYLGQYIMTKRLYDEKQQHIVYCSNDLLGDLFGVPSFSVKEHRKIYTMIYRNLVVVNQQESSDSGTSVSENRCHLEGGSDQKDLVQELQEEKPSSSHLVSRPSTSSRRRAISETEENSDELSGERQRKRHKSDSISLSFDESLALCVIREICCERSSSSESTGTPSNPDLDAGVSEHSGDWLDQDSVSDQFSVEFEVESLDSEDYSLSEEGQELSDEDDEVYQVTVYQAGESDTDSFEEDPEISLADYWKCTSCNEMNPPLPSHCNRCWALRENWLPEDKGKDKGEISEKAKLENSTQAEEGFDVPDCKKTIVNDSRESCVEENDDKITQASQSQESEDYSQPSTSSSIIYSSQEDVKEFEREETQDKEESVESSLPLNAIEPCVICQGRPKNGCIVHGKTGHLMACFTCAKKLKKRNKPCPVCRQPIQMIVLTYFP
Sequence of Bcl-2-like protein 1 (Q07817 whole entry, the tested form may be a part): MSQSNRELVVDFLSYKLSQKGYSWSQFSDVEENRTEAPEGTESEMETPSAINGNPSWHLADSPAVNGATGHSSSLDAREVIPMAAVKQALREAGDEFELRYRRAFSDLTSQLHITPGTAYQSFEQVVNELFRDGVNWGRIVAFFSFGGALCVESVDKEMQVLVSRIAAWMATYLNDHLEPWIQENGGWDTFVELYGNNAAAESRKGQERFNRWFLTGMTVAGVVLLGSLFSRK
Sequence of E3 ubiquitin-protein ligase Mdm2 (Q00987 whole entry): as the sequence (Q00987 whole entry) above

## CC(C)C[C@@H]1NC(=O)[C@H](Cc2c[nH]c3ccc(Cl)cc23)NC(=O)[C@H](CCC(=O)O)NC(=O)[C@H](Cc2ccccc2)NC(=O)[C@@H]2CCCN2C(=O)[C@H]2CCCN2C(=O)[C@H](Cc2ccccc2)NC(=O)[C@H](CCC(=O)O)NC(=O)[C@H](Cc2c[nH]c3ccccc23)NC(=O)[C@H](CC(=O)O)NC1=O
[1]
  IC50: 0.14 µM

## CC(C)CCN(CC(=O)N(CCS(N)(=O)=O)CC(=O)N(CC(N)=O)Cc1ccc([N+](=O)[O-])cc1)C(=O)CN(CCCP(=O)(O)O)C(=O)CN(Cc1ccc([N+](=O)[O-])cc1)C(=O)CN(CCc1c[nH]c2ccccc12)C(=O)CN(CCCCP(=O)(O)O)C(=O)CN(Cc1ccc([N+](=O)[O-])cc1)C(=O)CN(CCc1ccccc1)C(=O)CNCc1ccc([N+](=O)[O-])cc1
[1]
  IC50: 6.6 µM

## CC(=O)N[C@@H](Cc1cnc[nH]1)C(=O)N[C@@H](CCCCN)C(=O)N[C@@]1(C)CCCCCCCC[C@@](C)(C(=O)N[C@@H](CC(C)C)C(=O)N[C@@H](CCC(N)=O)C(=O)N[C@@H](CC(=O)O)C(=O)N[C@@H](CO)C(N)=O)NC(=O)[C@H](CCC(N)=O)NC(=O)[C@H](Cc2cnc[nH]2)NC(=O)[C@H](CC(C)C)NC1=O
Estrogen receptor
  Kd: 0.352 µM

## CC(=O)N[C@H]1CNC[C@@H]1C(=O)N[C@@H](C)C(=O)N[C@H]1CCC[C@@H]1C(=O)N[C@@H](CCCNC(=N)N)C(=O)N[C@H]1CCC[C@@H]1C(=O)N[C@@H](CC(C)C)C(=O)N[C@H]1CCC[C@@H]1C(=O)N[C@@H](CCCCN)C(=O)N[C@@H](CC(C)C)C(=O)NCC(=O)N[C@@H](CC(=O)O)C(=O)N[C@@H](C)C(=O)N[C@@H](Cc1ccccc1)C(=O)N[C@@H](CC(N)=O)C(=O)N[C@@H](CCCNC(=N)N)C(N)=O (Ac-[X1]A[X2]R[X2]L[X2]KLGDAFNR-NH2)
Bcl-2-like protein 1
  Ki: 0.002 µM

## CC(C)C[C@H](NC(=O)[C@@H]1CSSC[C@H](N)C(=O)N[C@@H](CC(N)=O)C(=O)N[C@H]2CSSC[C@H](NC(=O)[C@H](CC(C)C)NC(=O)[C@H](Cc3ccccc3)NC(=O)[C@H]([C@@H](C)O)NC(=O)[C@H](CCC(=O)O)NC(=O)[C@@H]3CCCN3C(=O)[C@H](C)NC(=O)[C@H](CCCCN)NC2=O)C(=O)N[C@@H](Cc2ccc(O)cc2)C(=O)N[C@@H](Cc2c[nH]c3ccccc23)C(=O)N[C@@H](CCCNC(=N)N)C(=O)N1)C(=O)N[C@@H](CCC(N)=O)C(=O)N[C@@H](Cc1cnc[nH]1)C(N)=O (H-CNCKAPETFLCYWRCLQH-NH2; disulfide 1-15, 3-11)
[2]
  Kd: 17.7 µM

## CC(=O)N[C@@H](CCCNC(=N)N)C(=O)N[C@@H](Cc1c[nH]c2ccccc12)C(=O)NC1CCCCCCCNC(=O)[C@@H]2CCCN2C(=O)[C@H](CCCNC(=N)N)NC(=O)[C@H](C)NC(=O)[C@@H]2CCCN2C(=O)C(Cc2ccccc2)NC1=O (single isomer, unassigned)
[3]
  Ki: 0.0238 µM
